Experimental data published in ChEMBL document CHEMBL5316333, “Potent Long-Acting Inhibitors Targeting the HIV-1 Capsid Based on a Versatile Quinazolin-4-one Scaffold” (J Med Chem, 2023).

Tests used:
[1] = system: Human immunodeficiency virus 1; assay: Antiviral activity against HIV-1 NLRep-Rluc infected in human MT2 cells assessed as inhibition of viral growth incubated for 96 hrs by renilla luciferase assay; type: functional, organism-based
MT2 = assay: (§1) Cytotoxicity against human MT2 cells assessed as reduction in cell viability incubated for 4 days by XTT assay; type: toxicity, cell-based; settings: mt2, 96 h, 96 h, time 4 day
[2] = Clearance in Sprague-Dawley rat at 1 mg/kg, iv and measured upto 96 hrs by LC-MS/MS analysis; type: ADME, organism-based; settings: in vivo
[3] = Selectivity index, ratio of CC50 for cytotoxicity against human MT2 cells to EC50 for antiviral activity against HIV-1 NLRep-Rluc infected in human MT2 cells; type: toxicity, cell-based; settings: read-out: Ratio CC50/EC50
[4] = as §1; type: toxicity, cell-based; settings: MT2 cells, time 4 day
[5] = Human immunodeficiency virus 1, NLRep-Rluc, MT2, 96 h

SMILES	EC50 ([1]; mt2)	CC50 (MT2)	clearance [2]	selectivity ratio [3]	CC50 at 96 h [4]	EC50 [1, 5]
COc1ccc2c(=O)n(-c3ccc(Cl)c4c(NS(C)(=O)=O)nn(C)c34)c([C@H](Cc3cc(F)cc(F)c3)NC(=O)Cn3nc(C(F)F)c4c3C(F)(F)[C@@H]3C[C@H]43)nc2c1 (stereo in doubt; 13b)	9.8 nM	> 1000 nM	–	–	–	–
COc1cccc2nc([C@H](Cc3cc(F)cc(F)c3)NC(=O)Cn3nc(C(F)F)c4c3C(F)(F)[C@@H]3C[C@H]43)n(-c3ccc(Cl)c4c(NS(C)(=O)=O)nn(C)c34)c(=O)c12 (stereo in doubt; 13d)	130 nM	> 1000 nM	–	–	–	–
Cn1nc(NS(C)(=O)=O)c2c(Cl)ccc(-n3c([C@H](Cc4cc(F)cc(F)c4)NC(=O)Cn4nc(C(F)F)c5c4C(F)(F)[C@@H]4C[C@H]54)nc4ccccc4c3=O)c21 (stereo in doubt; 13a)	81 nM	> 1000 nM	–	–	–	–
Cn1nc(NS(C)(=O)=O)c2c(Cl)ccc(-n3c([C@H](Cc4cc(F)cc(F)c4)NC(=O)Cn4nc(C(F)F)c5c4C(F)(F)[C@@H]4C[C@H]54)nc4ccccc4c3=O)c21 (stereo in doubt; 12a)	0.049 nM	> 20000 nM	30 mL/min/kg	> 1000	–	–
COc1cccc2nc([C@H](Cc3cc(F)cc(F)c3)NC(=O)Cn3nc(C(F)F)c4c3C(F)(F)[C@@H]3C[C@H]43)n(-c3ccc(Cl)c4c(NS(C)(=O)=O)nn(C)c34)c(=O)c12 (stereo in doubt; 12d)	0.11 nM	> 20000 nM	–	> 1000	–	–
COc1ccc2c(=O)n(-c3ccc(Cl)c4c(NS(C)(=O)=O)nn(C)c34)c([C@H](Cc3cc(F)cc(F)c3)NC(=O)Cn3nc(C(F)F)c4c3C(F)(F)[C@@H]3C[C@H]43)nc2c1 (stereo in doubt; 12b)	0.058 nM	> 20000 nM	8.3 mL/min/kg	> 1000	–	–
COc1ccc2nc([C@H](Cc3cc(F)cc(F)c3)NC(=O)Cn3nc(C(F)F)c4c3C(F)(F)[C@@H]3C[C@H]43)n(-c3ccc(Cl)c4c(NS(C)(=O)=O)nn(C)c34)c(=O)c2c1 (stereo in doubt; 12c)	0.15 nM	–	–	> 1000	> 20000 nM	–
Cn1nc(NS(C)(=O)=O)c2c(Cl)ccc(-n3c([C@H](Cc4cc(F)cc(F)c4)NC(=O)Cn4nc(C(F)F)c5c4C(F)(F)[C@@H]4C[C@H]54)nc4cc(N5CCCCC5)ccc4c3=O)c21	–	–	11 mL/min/kg	–	–	0.27 nM
Cn1nc(NS(C)(=O)=O)c2c(Cl)ccc(-n3c([C@H](Cc4cc(F)cc(F)c4)NC(=O)Cn4nc(C(F)F)c5c4C(F)(F)[C@@H]4C[C@H]54)nc4cc(N5CCOCC5)ccc4c3=O)c21	–	–	16 mL/min/kg	–	–	0.037 nM
Cn1nc(NS(C)(=O)=O)c2c(Cl)ccc(-n3c([C@H](Cc4cc(F)cc(F)c4)NC(=O)Cn4nc(C(F)F)c5c4C(F)(F)[C@@H]4C[C@H]54)nc4cc(N5CCOC(C)(C)C5)ccc4c3=O)c21	–	–	9.6 mL/min/kg	–	–	0.05 nM
CN1CCN(c2ccc3c(=O)n(-c4ccc(Cl)c5c(NS(C)(=O)=O)nn(C)c45)c([C@H](Cc4cc(F)cc(F)c4)NC(=O)Cn4nc(C(F)F)c5c4C(F)(F)[C@@H]4C[C@H]54)nc3c2)CC1	–	–	60 mL/min/kg	–	–	0.15 nM
Cn1nc(NS(C)(=O)=O)c2c(Cl)ccc(-n3c([C@H](Cc4cc(F)cc(F)c4)NC(=O)Cn4nc(C(F)F)c5c4C(F)(F)[C@@H]4C[C@H]54)nc4cc(C#N)ccc4c3=O)c21	–	–	82 mL/min/kg	–	–	0.017 nM
